Experimental data published in ChEMBL document CHEMBL1201862, “PubChem BioAssay data set” (2004).
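Cells were grown in 96-well plates and exposed to each compound for 48 hours at five concentrations; endpoints were interpolated linearly between bracketing concentrations, or set to the highest concentration if not reached. Here, GI50 denotes the concentration required for 50% inhibition of growth.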 Active and inactive are the calls of the source. No stated cut-off is given here; in the data, active = GI50 up to about 1.1 µM and inactive = higher.

What was measured:
Test in all cases: DTP human tumour cell line panel, 48 h
[1] = tested on: U-251
[2] = tested on: T47D
[3] = tested on: SNB-19
[4] = tested on: M19-MEL
[5] = tested on: RPMI-8226
[6] = tested on: MDA-N
[7] = tested on: RXF 393
[8] = tested on: HL-60
[9] = tested on: SF-295
[10] = tested on: MDA-MB-435
[11] = tested on: TK-10
[12] = tested on: OVCAR-5
[13] = tested on: K562
[14] = tested on: LXFL 529
[15] = tested on: HCC 2998
[16] = tested on: A498
[17] = tested on: SK-MEL-2
[18] = tested on: HOP-18
[19] = tested on: SF-539
[20] = tested on: OVCAR-3
[21] = tested on: DMS-273
[22] = tested on: MCF7
[23] = tested on: Hs-578T
[24] = tested on: M14
[25] = tested on: Malme-3M
[26] = tested on: XF498
[27] = tested on: DLD-1
[28] = tested on: DMS-114
[29] = tested on: OVCAR-8
[30] = tested on: HCT-15
[31] = tested on: SR
[32] = tested on: NCI-H522
[33] = tested on: UACC-62
[34] = tested on: HOP-92
[35] = tested on: SW-620
[36] = tested on: PC-3
[37] = tested on: MDA-MB-231
[38] = tested on: SK-MEL-28
[39] = tested on: CAKI-1
[40] = tested on: 786-0
[41] = tested on: SNB-78
[42] = tested on: KM-20L2
[43] = tested on: NCI/ADR-RES
[44] = tested on: NCI-H23
[45] = tested on: COLO 205
[46] = tested on: HT-29
[47] = tested on: CCRF-CEM
[48] = tested on: MOLT-4
[49] = tested on: IGROV-1
[50] = tested on: UACC-257
[51] = tested on: BT-549
[52] = tested on: DU-145
[53] = tested on: HOP-62
[54] = tested on: EKVX
[55] = tested on: SN12C
[56] = tested on: KM12
[57] = tested on: NCI-H226
[58] = tested on: A549
[59] = tested on: HCT-116
[60] = tested on: OVCAR-4
[61] = tested on: SNB-75
[62] = tested on: NCI-H460
[63] = tested on: SF-268
[64] = tested on: LOX IMVI
[65] = tested on: SK-OV-3
[66] = tested on: SK-MEL-5
[67] = tested on: ACHN
[68] = tested on: UO-31

## CC(C)CC(NC(=O)OC(C)(C)C)C(=O)Nc1ccc(Nc2nc(F)nc(-c3c4ccccc4cn3C)n2)cc1 (configuration not stated)
[1]
  GI50: 43.9 µM (inactive)
[2]
  GI50: 40.4 µM (inactive)
[3]
  GI50: > 86.1 µM (inactive)
[4]
  GI50: 97.9 µM (inactive)
[5]
  GI50: 3.07 µM (inactive)
[6]
  GI50: > 100 µM (inactive)
[7]
  GI50: 22.2 µM (inactive)
[8]
  GI50: 3.94 µM (inactive)
[9]
  GI50: > 81.7 µM (inactive)
[10]
  GI50: > 100 µM (inactive)
[11]
  GI50: > 92.7 µM (inactive)
[12]
  GI50: > 100 µM (inactive)
[13]
  GI50: 62.2 µM (inactive)
[14]
  GI50: 77.3 µM (inactive)
[15]
  GI50: 15.8 µM (inactive)
[16]
  GI50: 98.6 µM (inactive)
[17]
  GI50: > 100 µM (inactive)
[18]
  GI50: > 100 µM (inactive)
[19]
  GI50: > 93.3 µM (inactive)
[20]
  GI50: 22.5 µM (inactive)
[21]
  GI50: 42.6 µM (inactive)
[22]
  GI50: 4.89 µM (inactive)
[23]
  GI50: 40.3 µM (inactive)
[24]
  GI50: > 100 µM (inactive)
[25]
  GI50: > 100 µM (inactive)
[26]
  GI50: > 85.1 µM (inactive)
[27]
  GI50: > 37.2 µM (inactive)
[28]
  GI50: 21.8 µM (inactive)
[29]
  GI50: 98.6 µM (inactive)
[30]
  GI50: > 68.9 µM
[31]
  GI50: 53.6 µM (inactive)
[32]
  GI50: 75.3 µM (inactive)
[33]
  GI50: > 100 µM (inactive)
[34]
  GI50: 52.2 µM (inactive)
[35]
  GI50: > 36 µM (inactive)
[36]
  GI50: 35.1 µM (inactive)
[37]
  GI50: 66.1 µM (inactive)
[38]
  GI50: > 100 µM (inactive)
[39]
  GI50: > 100 µM (inactive)
[40]
  GI50: > 100 µM (inactive)
[41]
  GI50: 14.7 µM (inactive)
[42]
  GI50: 37.6 µM (inactive)
[43]
  GI50: > 100 µM (inactive)
[44]
  GI50: 62.5 µM (inactive)
[45]
  GI50: 18.6 µM (inactive)
[46]
  GI50: 23.1 µM (inactive)
[47]
  GI50: 33.3 µM (inactive)
[48]
  GI50: 59.7 µM (inactive)
[49]
  GI50: > 100 µM (inactive)
[50]
  GI50: > 100 µM (inactive)
[51]
  GI50: > 100 µM (inactive)
[52]
  GI50: 20.3 µM (inactive)
[53]
  GI50: 12.7 µM (inactive)
[54]
  GI50: 52.7 µM (inactive)
[55]
  GI50: > 100 µM (inactive)
[56]
  GI50: 12.6 µM (inactive)
[57]
  GI50: > 100 µM (inactive)
[58]
  GI50: > 100 µM (inactive)
[59]
  GI50: 72.1 µM (inactive)
[60]
  GI50: > 41.8 µM (inactive)
[61]
  GI50: 47.1 µM (inactive)
[62]
  GI50: > 75 µM (inactive)
[63]
  GI50: > 100 µM (inactive)
[64]
  GI50: > 100 µM (inactive)
[65]
  GI50: > 100 µM (inactive)
[66]
  GI50: > 100 µM (inactive)
[67]
  GI50: 62.7 µM (inactive)
[68]
  GI50: 44.9 µM (inactive)

## COc1cc2ccnc3c2c(c1OC)CC1CC(O)C(OC)CC31 (configuration not stated)
[1]
  GI50: 38 µM (inactive)
[3]
  GI50: 99.3 µM (inactive)
[4]
  GI50: 96.2 µM (inactive)
[5]
  GI50: 38.3 µM (inactive)
[8]
  GI50: 28.6 µM (inactive)
[9]
  GI50: 36.6 µM (inactive)
[11]
  GI50: 53.8 µM (inactive)
[12]
  GI50: 37.5 µM (inactive)
[13]
  GI50: 47.2 µM (inactive)
[14]
  GI50: 36.6 µM (inactive)
[15]
  GI50: 42.7 µM (inactive)
[17]
  GI50: > 100 µM (inactive)
[18]
  GI50: 21.8 µM (inactive)
[19]
  GI50: 24.4 µM (inactive)
[20]
  GI50: 82.2 µM (inactive)
[21]
  GI50: 34 µM (inactive)
[24]
  GI50: 51.8 µM (inactive)
[25]
  GI50: > 100 µM (inactive)
[26]
  GI50: 44.7 µM (inactive)
[27]
  GI50: 95.3 µM (inactive)
[28]
  GI50: 44.5 µM (inactive)
[29]
  GI50: 53.8 µM (inactive)
[30]
  GI50: 63.8 µM
[31]
  GI50: 32 µM (inactive)
[32]
  GI50: 60.1 µM (inactive)
[33]
  GI50: 38.5 µM (inactive)
[34]
  GI50: 14.7 µM (inactive)
[35]
  GI50: 33.7 µM (inactive)
[38]
  GI50: 22.7 µM (inactive)
[40]
  GI50: 33.5 µM (inactive)
[41]
  GI50: > 100 µM (inactive)
[42]
  GI50: 43.2 µM (inactive)
[44]
  GI50: 47.5 µM (inactive)
[45]
  GI50: 43.2 µM (inactive)
[46]
  GI50: 46.5 µM (inactive)
[47]
  GI50: 78.3 µM (inactive)
[48]
  GI50: 33.3 µM (inactive)
[49]
  GI50: 66.4 µM (inactive)
[50]
  GI50: 37.1 µM (inactive)
[53]
  GI50: 26.6 µM (inactive)
[54]
  GI50: 22.8 µM (inactive)
[55]
  GI50: 41.4 µM (inactive)
[56]
  GI50: 40.9 µM (inactive)
[57]
  GI50: 96.4 µM (inactive)
[58]
  GI50: 61.8 µM (inactive)
[59]
  GI50: 38.7 µM (inactive)
[60]
  GI50: > 100 µM (inactive)
[61]
  GI50: > 100 µM (inactive)
[62]
  GI50: 35.6 µM (inactive)
[64]
  GI50: 31.7 µM (inactive)
[65]
  GI50: > 100 µM (inactive)
[66]
  GI50: 38.4 µM (inactive)
[67]
  GI50: 44.4 µM (inactive)
[68]
  GI50: 20.9 µM (inactive)
